Experiment [1] has as its target T1, wild type LRRK2 overexpressed in recombinant HEK-293T cells (Homo sapiens, UniProt Q5S007).
T1 construct: host or cells: HEK293T (transient transfection with pCMV-LRRK2 WT plasmid)
Briefly: pS935 LRRK2 Cell Assay (HTRF, phospho-LRRK2 Ser935). Format: cell-based. Conditions: LRRK2 Inhibition, Table 8, 2 hours compound incubation. In outline:
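HEK-293T cells transiently transfected with wild-type LRRK2 for 24 h, plated overnight, then treated 2 h at 37° C with compound (top 10 μM, 3-fold, 9 doses, duplicates, 0.2% DMSO). Lysates probed overnight at 23° C by sandwich HTRF for pSer935; 665/615 nm ratio read.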
On the technique in general: TR-FRET usually uses a lanthanide donor and a delayed reading to cut background.

The next experiment concerns the target LRRK2 wild type enzyme (Homo sapiens, UniProt Q5S007). Briefly: Biochemical Assay: LRRK2 TR-FRET (LanthaScreen) kinase assay with LRRKtide substrate. Conditions: LRRK2 Inhibition, Table 8. In outline:
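Human wild-type LRRK2 (3 nM) preincubated 15 min with compound (11-point, 3-fold, top 10 μM), then reacted 120 min at 23 °C with 400 nM LRRKtide and 25 μM ATP, pH 8.0. Stopped with EDTA; Tb-anti-pLRRKtide TR-FRET read after 30 min.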

Sequence of LRRK2 wild type enzyme (Q5S007 whole entry): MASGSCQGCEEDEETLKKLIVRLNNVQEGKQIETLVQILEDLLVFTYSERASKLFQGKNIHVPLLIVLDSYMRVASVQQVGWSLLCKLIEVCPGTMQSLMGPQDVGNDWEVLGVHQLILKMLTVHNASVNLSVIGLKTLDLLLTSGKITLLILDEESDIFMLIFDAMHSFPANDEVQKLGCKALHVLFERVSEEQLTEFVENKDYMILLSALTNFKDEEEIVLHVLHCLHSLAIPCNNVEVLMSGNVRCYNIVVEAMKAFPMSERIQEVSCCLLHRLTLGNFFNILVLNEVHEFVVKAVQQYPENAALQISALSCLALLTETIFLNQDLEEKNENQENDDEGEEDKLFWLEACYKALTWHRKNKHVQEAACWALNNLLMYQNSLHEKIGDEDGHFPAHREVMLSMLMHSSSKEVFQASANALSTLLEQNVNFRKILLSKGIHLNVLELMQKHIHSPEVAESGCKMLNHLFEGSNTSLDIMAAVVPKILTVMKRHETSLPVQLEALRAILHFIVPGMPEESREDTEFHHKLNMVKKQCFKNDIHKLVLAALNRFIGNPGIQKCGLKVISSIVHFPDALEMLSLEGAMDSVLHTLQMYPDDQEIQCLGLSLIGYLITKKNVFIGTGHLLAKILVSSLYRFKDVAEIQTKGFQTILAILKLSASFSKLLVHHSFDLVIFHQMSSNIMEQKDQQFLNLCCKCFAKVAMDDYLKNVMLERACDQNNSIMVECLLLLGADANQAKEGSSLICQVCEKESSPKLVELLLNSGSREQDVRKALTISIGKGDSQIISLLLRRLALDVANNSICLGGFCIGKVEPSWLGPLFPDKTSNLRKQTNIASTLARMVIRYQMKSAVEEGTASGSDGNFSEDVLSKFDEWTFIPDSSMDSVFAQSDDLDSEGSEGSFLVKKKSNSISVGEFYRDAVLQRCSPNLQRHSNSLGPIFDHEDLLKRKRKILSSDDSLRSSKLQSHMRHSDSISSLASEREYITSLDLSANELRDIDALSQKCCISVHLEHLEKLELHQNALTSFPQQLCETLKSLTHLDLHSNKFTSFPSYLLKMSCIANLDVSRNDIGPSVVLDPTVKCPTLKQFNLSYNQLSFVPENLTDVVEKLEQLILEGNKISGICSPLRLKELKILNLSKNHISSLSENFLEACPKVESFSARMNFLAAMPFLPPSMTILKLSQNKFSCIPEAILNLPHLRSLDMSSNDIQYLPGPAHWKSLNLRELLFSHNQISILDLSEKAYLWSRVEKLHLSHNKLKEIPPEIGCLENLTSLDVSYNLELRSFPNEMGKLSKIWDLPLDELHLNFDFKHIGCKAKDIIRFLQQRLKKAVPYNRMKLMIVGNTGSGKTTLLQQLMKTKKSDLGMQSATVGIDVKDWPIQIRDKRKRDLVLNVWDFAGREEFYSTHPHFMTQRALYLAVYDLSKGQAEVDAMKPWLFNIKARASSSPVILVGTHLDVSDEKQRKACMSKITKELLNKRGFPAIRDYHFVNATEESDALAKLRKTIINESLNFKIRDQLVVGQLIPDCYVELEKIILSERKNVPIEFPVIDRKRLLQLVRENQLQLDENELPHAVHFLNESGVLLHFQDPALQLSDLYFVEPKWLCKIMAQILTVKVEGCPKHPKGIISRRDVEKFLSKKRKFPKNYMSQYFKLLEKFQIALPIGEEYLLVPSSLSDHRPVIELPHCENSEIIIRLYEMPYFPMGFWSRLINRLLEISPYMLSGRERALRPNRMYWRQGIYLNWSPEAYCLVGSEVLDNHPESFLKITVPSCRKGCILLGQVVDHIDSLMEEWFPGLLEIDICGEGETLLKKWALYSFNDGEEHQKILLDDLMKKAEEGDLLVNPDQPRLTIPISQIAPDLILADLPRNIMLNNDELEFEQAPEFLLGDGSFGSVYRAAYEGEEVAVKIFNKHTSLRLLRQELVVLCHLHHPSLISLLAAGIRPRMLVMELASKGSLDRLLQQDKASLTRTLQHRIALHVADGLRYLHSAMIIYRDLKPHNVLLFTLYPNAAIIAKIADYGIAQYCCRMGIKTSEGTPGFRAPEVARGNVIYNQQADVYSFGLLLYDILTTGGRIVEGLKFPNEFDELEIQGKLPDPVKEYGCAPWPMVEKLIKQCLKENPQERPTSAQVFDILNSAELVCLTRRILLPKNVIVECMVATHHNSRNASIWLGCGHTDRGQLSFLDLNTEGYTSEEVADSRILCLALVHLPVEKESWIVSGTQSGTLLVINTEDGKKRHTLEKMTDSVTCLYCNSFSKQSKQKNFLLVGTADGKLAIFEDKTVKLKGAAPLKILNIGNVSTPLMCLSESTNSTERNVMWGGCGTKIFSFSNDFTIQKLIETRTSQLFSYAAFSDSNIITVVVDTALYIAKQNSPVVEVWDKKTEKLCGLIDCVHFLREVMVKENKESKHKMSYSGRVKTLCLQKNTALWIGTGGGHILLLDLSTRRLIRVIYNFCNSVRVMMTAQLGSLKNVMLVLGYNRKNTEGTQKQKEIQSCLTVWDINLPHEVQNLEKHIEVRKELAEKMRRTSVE
T1 sequence (Q5S007 whole entry): as above

The term IC50 denotes the point on the concentration scale where inhibition reaches its midpoint. For the compound `C[C@@H]1C[C@H](n2c(CC(=O)Nc3cccnc3)nc3cnc4ccc(C#N)cc4c32)CCO1` [Compound 320, N-3-pyridyl{3-[(2R,4R)-2-methyltetrahydro-2H-pyran-4-yl]-12-cyano-3,5,8-triazatricyclo[7.4.0.0^2,6]trideca-1(9),2(6),4,7,10,12-hexaen-4-yl}acetamide], the values for the IC50 (in experiment [1]; against LRRK2 wild type enzyme) were 6.31 nM and 0.571 nM, respectively.
In the same order, the values of `C[C@@H]1C[C@H](n2c(CC(=O)NCC(F)(F)CO)nc3cnc4ccc(C#N)cc4c32)CCO1` [Compound 233, N-(2,2-difluoro-3-hydroxypropyl){3-[(2R,4R)-2-methyltetrahydro-2H-pyran-4-yl]-12-cyano-3,5,8-triazatricyclo[7.4.0.0^2,6]trideca-1,4,6,8,10,12-hexaen-4-yl}acetamide] are 247 nM and 0.837 nM.
In the case of `C[C@@H]1C[C@H](n2c([C@@H]3CCN(S(=O)(=O)C4CC4)C3)nc3cnc4ccc(C#N)cc4c32)CCO1` [Compound 24, 2-[(3R)-1-(cyclopropanesulfonyl)pyrrolidin-3-yl]-1-[(2R,4R)-2-methyloxan-4-yl]-1H-imidazo[4,5-c]quinoline-8-carbonitrile], the IC50 in experiment [1] worked out at 677 nM; against LRRK2 wild type enzyme, 5.4 nM.
In the same order, the values of `C[C@@H]1C[C@H](n2c(CC(=O)Nc3ccnnc3)nc3cnc4ccc(C#N)cc4c32)CCO1` [Compound 268, N-4-pyridazinyl{3-[(2R,4R)-2-methyltetrahydro-2H-pyran-4-yl]-12-cyano-3,5,8-triazatricyclo[7.4.0.0^2,6]trideca-1,4,6,8,10,12-hexaen-4-yl}acetamide] are 109 nM and 0.461 nM.
Consider `C[C@@H]1C[C@H](n2c(CNc3ncccn3)nc3cnc4ccc(C#N)cc4c32)CCO1` [Compound 105, 1-[(2R,4R)-2-methyloxan-4-yl]-2-{[(pyrimidin-2-yl)amino]methyl}-1H-imidazo[4,5-c]quinoline-8-carbonitrile], for which the IC50 in experiment [1] is 240 nM; against LRRK2 wild type enzyme it was 3.5 nM.
In the same order, the values of `C[C@@H]1C[C@H](n2c(CC(=O)Nc3cccnc3C(F)(F)F)nc3cnc4ccc(C#N)cc4c32)CCO1` [Compound 285, N-[2-(trifluoromethyl)-3-pyridyl]{3-[(2R,4R)-2-methyltetrahydro-2H-pyran-4-yl]-12-cyano-3,5,8-triazatricyclo[7.4.0.0^2,6]trideca-1,4,6,8,10,12-hexaen-4-yl}acetamide] are 18.2 nM and 0.68 nM.
In the same order, the values of `Cc1cc(NC(=O)Cc2nc3cnc4ccc(C#N)cc4c3n2[C@@H]2CCO[C@H](C)C2)no1` [Compound 156, 2-{8-cyano-1-[(2R,4R)-2-methyloxan-4-yl]-1H-imidazo[4,5-c]quinolin-2-yl}-N-(5-methyl-1,2-oxazol-3-yl)acetamide] are 6.83 nM and 0.529 nM.
In the same order, the values of `Cc1ncccc1NC(=O)Cc1nc2cnc3ccc(C#N)cc3c2n1[C@@H]1CCO[C@H](C)C1` [Compound 316, N-(2-methyl-3-pyridyl){3-[(2R,4R)-2-methyltetrahydro-2H-pyran-4-yl]-12-cyano-3,5,8-triazatricyclo[7.4.0.0^2,6]trideca-1(9),2(6),4,7,10,12-hexaen-4-yl}acetamide] are 6.81 nM and 0.527 nM.
On to `C[C@@H]1C[C@H](n2c(CC(=O)NCC3COC3)nc3cnc4ccc(C#N)cc4c32)CCO1` [Compound 177, 2-{8-cyano-1-[(2R,4R)-2-methyloxan-4-yl]-1H-imidazo[4,5-c]quinolin-2-yl}-N-[(oxetan-3-yl)methyl]acetamide], for which the half-maximal inhibitory concentration (IC50) in experiment [1] was found to be 124 nM; against LRRK2 wild type enzyme, 0.524 nM.
In the same order, the values of `Cc1cncc(NC(=O)Cc2nc3cnc4ccc(C#N)cc4c3n2[C@@H]2CCO[C@H](C)C2)n1` [Compound 314, N-(6-methyl-2-pyrazinyl){3-[(2R,4R)-2-methyltetrahydro-2H-pyran-4-yl]-12-cyano-3,5,8-triazatricyclo[7.4.0.0^2,6]trideca-1(9),2(6),4,7,10,12-hexaen-4-yl}acetamide] are 2.36 nM and 0.542 nM.

These data come from patent US20250270209A1 (INTERLINE THERAPEUTICS, INC., priority 2022, published 2025).
